Reference: patent US8735414B2 (priority 2009, dated 2014)
pIC50: −log10 of the molar value.

How the values were obtained:
[1] = test system: bicistronic HCV replicon (replicon RNA, GenBank Accession No. AJ242654); experiment: HCV Replicon Assay; format: cell-based; settings: Hepatitis C virus, 72 h, read-out: Replicon IC50

Row | SMILES | pIC50 [1] | melting point
1 | CCc1cc2c(cc1F)c(C#N)c(-c1ccc(S(=O)(=O)N[C@@H](C)C(F)(F)F)cn1)n2C1CCCC1 [compound 633, 6-(3-cyano-1-cyclopentyl-6-ethyl-5-fluoro-1H-indol-2-yl)-N-[(2S)-1,1,1-trifluoropropan-2-yl]pyridine-3-sulfonamide] | > 6.30 | 201 to 202 °C
2 | N#Cc1c(-c2ccc(S(=O)(=O)NC(CF)CF)cn2)n(-c2ncccn2)c2cc(OC(F)F)ccc12 [compound 635, 6-[3-cyano-6-(difluoromethoxy)-1-(pyrimidin-2-yl)-1H-indol-2-yl]-N-(1,3-difluoropropan-2-yl)pyridine-3-sulfonamide] | > 6.30 | 173 to 176 °C
3 | CCc1cc2c(cc1F)c(C#N)c(-c1ccc(S(=O)(=O)NC3(C(F)(F)F)CC3)cn1)n2C1CCCC1 [compound 637, 6-(3-cyano-1-cyclopentyl-6-ethyl-5-fluoro-1H-indol-2-yl)-N-[1-(trifluoromethyl)cyclopropyl]pyridine-3-sulfonamide] | > 6.30 | 198 to 199 °C
4 | CCc1cc2c(cc1F)c(C#N)c(-c1ncc(S(=O)(=O)NC(CF)CF)cn1)n2C1CCCC1 [compound 638, 2-(3-cyano-1-cyclopentyl-6-ethyl-5-fluoro-1H-indol-2-yl)-N-(1,3-difluoropropan-2-yl)pyrimidine-5-sulfonamide] | > 6.30 | 184 to 185 °C
5 | CCc1cc2c(cc1F)c(C#N)c(-c1ccc(S(=O)(=O)NC(CF)CF)cn1)n2C1CCCC1 [compound 639, 6-(3-cyano-1-cyclopentyl-6-ethyl-5-fluoro-1H-indol-2-yl)-N-(1,3-difluoropropan-2-yl)pyridine-3-sulfonamide] | > 6.30 | 179.5 to 180 °C
6 | CCc1cc2c(cc1F)c(C#N)c(-c1ccc(S(=O)(=O)N[C@@H](C)C(F)(F)F)cn1)n2C1CCC1 [compound 640, 6-(3-cyano-1-cyclobutyl-6-ethyl-5-fluoro-1H-indol-2-yl)-N-[(2S)-1,1,1-trifluoropropan-2-yl]pyridine-3-sulfonamide] | > 6.30 | 205 to 206 °C
7 | CCc1cc2c(cc1F)c(C#N)c(-c1ccc(S(=O)(=O)N[C@H](C)C(F)(F)F)cn1)n2C1CCC1 [compound 641, 6-(3-cyano-1-cyclobutyl-6-ethyl-5-fluoro-1H-indol-2-yl)-N-[(2R)-1,1,1-trifluoropropan-2-yl]pyridine-3-sulfonamide] | > 6.30 | 199 to 199.5 °C
8 | CCc1cc2c(cc1F)c(C#N)c(-c1ccc(S(=O)(=O)NC3(C(F)(F)F)CC3)cn1)n2C1CCC1 [compound 642, 6-(3-cyano-1-cyclobutyl-6-ethyl-5-fluoro-1H-indol-2-yl)-N-[1-(trifluoromethyl)cyclopropyl]pyridine-3-sulfonamide] | > 6.30 | 203 to 203.5 °C
9 | Cc1cc2c(cc1F)c(C#N)c(-c1ccc(S(=O)(=O)NC(C)(C)C)cn1)n2C1CCCC1 [compound 643, N-tert-butyl-6-(3-cyano-1-cyclopentyl-5-fluoro-6-methyl-1H-indol-2-yl)pyridine-3-sulfonamide] | > 6.30 | 208 to 209 °C
10 | Cc1cc2c(cc1F)c(C#N)c(-c1ccc(S(=O)(=O)NC3(C)CC3)cn1)n2C1CCCC1 [compound 645, 6-(3-cyano-1-cyclopentyl-5-fluoro-6-methyl-1H-indol-2-yl)-N-(1-methylcyclopropyl)pyridine-3-sulfonamide] | > 6.30 | 208 to 209 °C
11 | Cc1cc2cc(-c3ccc(S(=O)(=O)N[C@@H](C)C(F)(F)F)cn3)n(C3CCC3)c2cc1OC(F)F [compound 646, 6-[1-cyclobutyl-6-(difluoromethoxy)-5-methyl-1H-indol-2-yl]-N-[(2S)-1,1,1-trifluoropropan-2-yl]pyridine-3-sulfonamide] | 5.30 to 5.70 | 151 to 153 °C
12 | CCc1cc2c(C#N)c(-c3ccc(S(=O)(=O)N[C@@H](C)C(F)(F)F)cn3)n(C3CCC3)c2cc1OC(F)F [compound 647, 6-[3-cyano-1-cyclobutyl-6-(difluoromethoxy)-5-ethyl-1H-indol-2-yl]-N-[(2S)-1,1,1-trifluoropropan-2-yl]pyridine-3-sulfonamide] | 5.70 to 6.30 | 160 to 162 °C
13 | C[C@@H](NS(=O)(=O)c1ccc(-c2c(C#N)c3cc(F)c(OC(F)F)cc3n2C2CCC2)nc1)C(F)(F)F [compound 648, 6-[3-cyano-1-cyclobutyl-6-(difluoromethoxy)-5-fluoro-1H-indol-2-yl]-N-[(2R)-1,1,1-trifluoropropan-2-yl]pyridine-3-sulfonamide] | > 6.30 | 173 to 175 °C
14 | C[C@@H](NS(=O)(=O)c1ccc(-c2c(C#N)c3ccc(OC(F)F)cc3n2-c2ccc(F)cc2)nc1)C(F)(F)F [compound 649, 6-[3-cyano-6-(difluoromethoxy)-1-(4-fluorophenyl)-1H-indol-2-yl]-N-[(2R)-1,1,1-trifluoropropan-2-yl]pyridine-3-sulfonamide] | > 6.30 | 199 to 203 °C
15 | Cc1cc2c(cc1F)c(C#N)c(-c1ccc(S(=O)(=O)NC(C)(C)C)cn1)n2C1CCC1 [compound 651, N-tert-butyl-6-(3-cyano-1-cyclobutyl-5-fluoro-6-methyl-1H-indol-2-yl)pyridine-3-sulfonamide] | > 6.30 | 223 to 228 °C
16 | Cc1c(F)cc2c(C#N)c(-c3ccc(S(=O)(=O)N[C@H](C)C(F)(F)F)cn3)n(C3CCCC3)c2c1F [compound 653, 6-(3-cyano-1-cyclopentyl-5,7-difluoro-6-methyl-1H-indol-2-yl)-N-[(2R)-1,1,1-trifluoropropan-2-yl]pyridine-3-sulfonamide] | > 6.30 | 212 to 217 °C
17 | Cc1c(F)cc2c(C#N)c(-c3ccc(S(=O)(=O)NC4(C(F)(F)F)CC4)cn3)n(C3CCCC3)c2c1F [compound 654, 6-(3-cyano-1-cyclopentyl-5,7-difluoro-6-methyl-1H-indol-2-yl)-N-[1-(trifluoromethyl)cyclopropyl]pyridine-3-sulfonamide] | > 6.30 | 241 to 246 °C
18 | Cc1cc2c(cc1F)c(C#N)c(-c1ccc(S(=O)(=O)NC(C)C)cn1)n2C1CCC1 [compound 655, 6-(3-cyano-1-cyclobutyl-5-fluoro-6-methyl-1H-indol-2-yl)-N-(propan-2-yl)pyridine-3-sulfonamide] | > 6.30 | 222 to 226 °C
19 | Cc1c(F)cc2c(C#N)c(-c3ncc(S(=O)(=O)NC(CF)CF)cn3)n(C3CCCC3)c2c1F [compound 656, 2-(3-cyano-1-cyclopentyl-5,7-difluoro-6-methyl-1H-indol-2-yl)-N-(1,3-difluoropropan-2-yl)pyrimidine-5-sulfonamide] | > 6.30 | 230 to 234 °C
20 | C[C@H](NS(=O)(=O)c1ccc(-c2c(C#N)c3cc(F)c(OC(F)F)cc3n2-c2ccccn2)nc1)C(F)(F)F [compound 657, 6-[3-cyano-6-(difluoromethoxy)-5-fluoro-1-(pyridine-2-yl)-1H-indol-2-yl]-N-[(2S)-1,1,1-trifluoropropan-2-yl]pyridine-3-sulfonamide] | > 6.30 | 161 to 163 °C
21 | CC1(NS(=O)(=O)c2ccc(-c3c(C#N)c4cc(Cl)c(OC(F)F)cc4n3C3CCC3)nc2)CC1 [compound 658, 6-[5-chloro-3-cyano-1-cyclobutyl-6-(difluoromethoxy)-1H-indol-2-yl]-N-(1-methylcyclopropyl)pyridine-3-sulfonamide] | > 6.30 | 218 to 226 °C
22 | N#Cc1c(-c2ncc(S(=O)(=O)NC(CF)CF)cn2)n(C2CCC2)c2cc(OC(F)F)c(Cl)cc12 [compound 659, 2-[5-chloro-3-cyano-1-cyclobutyl-6-(difluoromethoxy)-1H-indol-2-yl]-N-(1,3-difluoropropan-2-yl)pyrimidine-5-sulfonamide] | > 6.30 | 228 to 232 °C
23 | Cc1cc2c(C#N)c(-c3ccc(S(=O)(=O)N[C@@H](C)C(F)(F)F)cn3)n(C3CCC3)c2cc1OC(F)F [compound 660, 6-[3-cyano-1-cyclobutyl-6-(difluoromethoxy)-5-methyl-1H-indol-2-yl]-N-[(2S)-1,1,1-trifluoropropan-2-yl]pyridine-3-sulfonamide] | > 6.30 | 168 to 170 °C
24 | C[C@H](NS(=O)(=O)c1ccc(-c2c(C#N)c3cc(F)c(C4CC4)cc3n2C2CCCC2)nc1)C(F)(F)F [compound 661, 6-(3-cyano-1-cyclopentyl-6-cyclopropyl-5-fluoro-1H-indol-2-yl)-N-[(2S)-1,1,1-trifluoropropan-2-yl]pyridine-3-sulfonamide] | > 6.30 | 189 to 190 °C
25 | C[C@@H](NS(=O)(=O)c1ccc(-c2c(C#N)c3cc(F)c(C4CC4)cc3n2C2CCCC2)nc1)C(F)(F)F [compound 662, 6-(3-cyano-1-cyclopentyl-6-cyclopropyl-5-fluoro-1H-indol-2-yl)-N-[(2R)-1,1,1-trifluoropropan-2-yl]pyridine-3-sulfonamide] | > 6.30 | 180 to 181 °C
26 | CC(C)(NS(=O)(=O)c1ccc(-c2c(C#N)c3ccc(OC(F)F)cc3n2-c2ncccn2)nc1)C(F)(F)F [compound 663, 6-[3-cyano-6-(difluoromethoxy)-1-(pyrimidin-2-yl)-1H-indol-2-yl]-N-(1,1,1-trifluoro-2-methylpropan-2-yl)pyridine-3-sulfonamide] | 5.70 to 6.30 | 179 to 180 °C
27 | N#Cc1c(-c2ccc(S(=O)(=O)NC3(C(F)(F)F)CC3)cn2)n(-c2ccc(F)cc2)c2cc(OC(F)F)ccc12 [compound 664, 6-[3-cyano-6-(difluoromethoxy)-1-(4-fluorophenyl)-1H-indol-2-yl]-N-[1-(trifluoromethyl)cyclopropyl]pyridine-3-sulfonamide] | > 6.30 | 195 to 198 °C
28 | Cc1c(F)cc2c(C#N)c(-c3ccc(S(=O)(=O)N[C@H](C)C(F)(F)F)cn3)n(C3CCC3)c2c1F [compound 666, 6-(3-cyano-1-cyclobutyl-5,7-difluoro-6-methyl-1H-indol-2-yl)-N-[(2R)-1,1,1-trifluoropropan-2-yl]pyridine-3-sulfonamide] | > 6.30 | 185 to 190 °C
